Assay results as given in patent US20240376097A1, “BCL-2 Inhibitor” (BeiGene Ltd., priority 2020, published 2024).
Where two headings read alike, the source gives them in different places.

Tests used:
[1] = test system: RS4;11 (BCL-2 dependent acute lymphoblastic leukemia cell line); test: RS4;11 Cell Proliferation Assay; type: cell-based; settings: Homo sapiens, RS4-11, RS4;11 cells, read-out: Cellular proliferation assay (IC50, nM) RS4
How it was run: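 Viability measured via CellTiter-Glo luminescence after a 48 h, 37 °C exposure to compounds (10 points, highest 1 μM). Seeding was 50,000 RS4;11 cells per well in 10% FBS RPMI-1640; IC50 given as mean.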

[2] = test system: recombinant human Bcl-2-G101V protein; test: Bcl-2-G101V TR-FRET Assay; type: binding; settings: ratio of biochemical IC50 Bcl-2 G101V / Bcl-2 WT
How it was run: (§1)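 Ex337/em490 & 520 nm TR-FRET; % inhibition of Bcl-2-G101V–ligand interaction from 490:520 ratio vs. increasing compound conc.; IC50 by 4-parameter logistic fit.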

[3] = molecular target: recombinant human Bcl-2-G101V protein (Homo sapiens (Human), UniProt P10415, G101V); test: Bcl-2-G101V TR-FRET Assay; type: binding; settings: Bcl-2 G101V mutant, TR-FRET; read-out: Biochemical assay (IC50, nM) Bcl-2 G101V
How it was run: as §1

[4] = test system: BCL-2 G101V knock-in cell line H96 (derive from RS4;11); test: Bcl 2-G101V Knock-In RS4;11 Cell Proliferation Assay; type: cell-based; settings: Homo sapiens, RS4;11 Bcl-2 G101V knock-in clone H96, 48 hrs, CellTiter-GLO, read-out: Cellular proliferation assay (IC50, nM) RS4
How it was run: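 CellTiter-Glo luminescence after 48 h, 37 °C compound treatment (10 concentrations, maximum 1 μM or 10 μM) gave mean IC50 values. Cells were 50,000 per well of H96, a BCL2-G101V knock-in single clone derived from RS4;11 by Cas9 editing.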

[5] = molecular target: Recombinant human Bcl-2 protein (Homo sapiens (Human), UniProt P10415); test: Bcl-2 TR-FRET Assay; type: binding
How it was run: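 TR-FRET read (337 nm excitation, 520/490 nm emission) after 1 h with 0.5 nM FITC-labeled Bak peptide and Tb-cryptate anti-6His antibody. Bcl-2 at 0.05 nM had been pre-incubated 0.5 h with compound. IC50 fitted by four-parameter logistic equation.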

[6] = molecular target: recombinant human Bcl-2 D103Y protein (Homo sapiens (Human), UniProt P10415, D103Y); test: Bcl-2-D103Y Biochemical Assay (TR-FRET); type: binding; settings: for IC50: TR-FRET, FITC labeled Bak peptide; for Ratio of Bcl-2 D103Y/Bcl-2 WT: ratio of IC50
How it was run: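 Compounds titrated against the Bcl-2 D103Y–ligand interaction; inhibition derived from the TR-FRET emission ratio 490 nm/520 nm after 337 nm excitation. Four-parameter logistic fitting gave IC50.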

[7] = Bcl-2 wild type, TR-FRET, read-out: Biochemical assay (IC50, nM) Bcl-2 WT
[8] = wild type Bcl-2, unit inferred, read-out: Bcl-2 WT

Structure (SMILES) | IC50 [1] [nM] | Ratio of Bcl-2 G101V/WT [2] | IC50 [3] [nM] | IC50 [4] [nM] | IC50 [5, 7] [nM] | IC50 [5, 8] [nM] | IC50 [6] [nM] | Ratio of Bcl-2 D103Y/Bcl-2 WT [6]
COc1cc(CN2CCN(C3CC4(CCN(c5ccc(C(=O)NS(=O)(=O)c6ccc(NC[C@H]7CC[C@](C)(O)CC7)c([N+](=O)[O-])c6)c(Oc6cnc7[nH]ccc7c6)c5)CC4)C3)C(c3ccccc3C(C)C)C2)cnc1OC (stereo partly drawn) [Example 176, 2-((1H-pyrrolo[2,3-b]pyridin-5-yl)oxy)-4-(2-(4-((5,6-dimethoxypyridin-3-yl)methyl)-2-(2-isopropylphenyl)piperazin-1-yl)-7-azaspiro[3.5]nonan-7-yl)-N-((4-((((1r,4r)-4-hydroxy-4-methylcyclohexyl)methyl)amino)-3-nitrophenyl)sulfonyl)benzamide] | 0.39 | 4.3 | 0.15 | 1 | 0.035 | 0.035 | 0.061 | 1.7
COc1cc(CN2CCN(C3CC4(C3)CN(c3ccc(C(=O)NS(=O)(=O)c5ccc(NC[C@H]6CC[C@](C)(O)CC6)c([N+](=O)[O-])c5)c(Oc5cnc6[nH]cc(F)c6c5)c3)C4)[C@H](c3ccccc3C(C)C)C2)ccc1F [Example 184, 2-((3-fluoro-1H-pyrrolo[2,3-b]pyridin-5-yl)oxy)-4-(6-((R)-4-(4-fluoro-3-methoxybenzyl)-2-(2-isopropylphenyl)piperazin-1-yl)-2-azaspiro[3.3]heptan-2-yl)-N-((4-((((1r,4r)-4-hydroxy-4-methylcyclohexyl)methyl)amino)-3-nitrophenyl)sulfonyl)benzamide] | 0.16 | 2.9 | 0.53 | 0.44 | 0.19 | 0.19 | 0.19 | 1
COc1ccc(CN2CCN(C3CC4(CCN(c5ccc(C(=O)NS(=O)(=O)c6ccc(NC[C@H]7CC[C@](C)(O)CC7)c([N+](=O)[O-])c6)c(Oc6cnc7[nH]ccc7c6)c5)CC4)C3)[C@H](c3ccccc3C(C)C)C2)cn1 [Example 185, 2-((1H-pyrrolo[2,3-b]pyridin-5-yl)oxy)-N-((4-((((1r,4r)-4-hydroxy-4-methylcyclohexyl)methyl)amino)-3-nitrophenyl)sulfonyl)-4-(2-((R)-2-(2-isopropylphenyl)-4-((6-methoxypyridin-3-yl)methyl)piperazin-1-yl)-7-azaspiro[3.5]nonan-7-yl)benzamide] | 0.14 | 4.5 | 0.14 | 0.6 | 0.031 | 0.031 | 0.05 | 1.6
COc1cc(CN2CCN(C3CC4(CCN(c5ccc(C(=O)NS(=O)(=O)c6ccc(NC[C@H]7CC[C@](C)(O)CC7)c([N+](=O)[O-])c6)c(Oc6cnc7[nH]cc(F)c7c6)c5)CC4)C3)[C@H](c3ccccc3C(C)C)C2)ccc1F [Example 190, 2-((3-fluoro-1H-pyrrolo[2,3-b]pyridin-5-yl)oxy)-4-(2-((R)-4-(4-fluoro-3-methoxybenzyl)-2-(2-isopropylphenyl)piperazin-1-yl)-7-azaspiro[3.5]nonan-7-yl)-N-((4-((((1r,4r)-4-hydroxy-4-methylcyclohexyl)methyl)amino)-3-nitrophenyl)sulfonyl)benzamide] | 0.13 | 2.7 | 0.62 | 0.37 | 0.23 | 0.23 | 0.34 | 1.5
COc1ccc(CN2CCN(C3CC4(CCN(c5ccc(C(=O)NS(=O)(=O)c6ccc(NC[C@H]7CC[C@](C)(O)CC7)c([N+](=O)[O-])c6)c(Oc6cnc7[nH]ccc7c6)c5)CC4)C3)C(c3ccccc3C(C)C)C2)nc1OC (stereo partly drawn) [Example 194, 2-((1H-pyrrolo[2,3-b]pyridin-5-yl)oxy)-4-(2-(4-((5,6-dimethoxypyridin-2-yl)methyl)-2-(2-isopropylphenyl)piperazin-1-yl)-7-azaspiro[3.5]nonan-7-yl)-N-((4-((((1r,4r)-4-hydroxy-4-methylcyclohexyl)methyl)amino)-3-nitrophenyl)sulfonyl)benzamide] | 0.3 | 3.1 | 0.16 | 0.82 | 0.051 | 0.051 | 0.072 | 1.4
[2H]C([2H])([2H])Oc1ccc(CN2CCN(C3CC4(C3)CN(c3ccc(C(=O)NS(=O)(=O)c5ccc(NC[C@H]6CC[C@](C)(O)CC6)c([N+](=O)[O-])c5)c(Oc5cnc6[nH]cc(F)c6c5)c3)C4)[C@H](c3ccccc3C(C)C)C2)cc1OC([2H])([2H])[2H] [Example 197, 4-(6-((R)-4-(3,4-bis(methoxy-d3)benzyl)-2-(2-isopropylphenyl)piperazin-1-yl)-2-azaspiro[3.3]heptan-2-yl)-2-((3-fluoro-1H-pyrrolo[2,3-b]pyridin-5-yl)oxy)-N-((4-((((1r,4r)-4-hydroxy-4-methylcyclohexyl)methyl)amino)-3-nitrophenyl)sulfonyl)benzamide] | 0.16 | 1.9 | 0.15 | 0.29 | 0.076 | 0.076 | 0.089 | 1.2
COc1ccc(CN2CCN(C3CC4(CCN(c5ccc(C(=O)NS(=O)(=O)c6ccc(NC[C@H]7CC[C@](C)(O)CC7)c([N+](=O)[O-])c6)c(Oc6cnc7[nH]ccc7c6)c5)CC4)C3)C(c3ccccc3C(C)C)C2)c2c1OCCO2 (stereo partly drawn) [Example 203, 2-((1H-pyrrolo[2,3-b]pyridin-5-yl)oxy)-N-((4-((((1r,4r)-4-hydroxy-4-methylcyclohexyl)methyl)amino)-3-nitrophenyl)sulfonyl)-4-(2-(2-(2-isopropylphenyl)-4-((8-methoxy-2,3-dihydrobenzo[b][1,4]dioxin-5-yl)methyl)piperazin-1-yl)-7-azaspiro[3.5]nonan-7-yl) benzamide] | 0.38 | 3.2 | 0.17 | 0.9 | 0.052 | 0.052 | 0.083 | 1.6
COc1cc(CN2CCN(C3CC4(C3)CN(c3ccc(C(=O)NS(=O)(=O)c5ccc(NC[C@H]6CC[C@](C)(O)CC6)c([N+](=O)[O-])c5)c(Oc5cnc6[nH]cc(F)c6c5)c3)C4)[C@H](c3ccccc3C(C)C)C2)cnc1OC [Example 205, 4-(6-((R)-4-((5,6-dimethoxypyridin-3-yl)methyl)-2-(2-isopropylphenyl)piperazin-1-yl)-2-azaspiro[3.3]heptan-2-yl)-2-((3-fluoro-1H-pyrrolo[2,3-b]pyridin-5-yl)oxy)-N-((4-((((1r,4r)-4-hydroxy-4-methylcyclohexyl)methyl)amino)-3-nitrophenyl)sulfonyl) benzamide] | 0.39 | 2 | 0.07 | 0.55 | 0.034 | 0.034 | 0.047 | 1.4
COc1ccc(CN2CCN(C3CC4(C3)CN(c3ccc(C(=O)NS(=O)(=O)c5ccc(NC[C@H]6CC[C@](C)(O)CC6)c([N+](=O)[O-])c5)c(Oc5cnc6[nH]cc(F)c6c5)c3)C4)[C@H](c3ccccc3C(C)C)C2)cn1 [Example 215, 2-((3-fluoro-1H-pyrrolo[2,3-b]pyridin-5-yl)oxy)-N-((4-((((1r,4r)-4-hydroxy-4-methylcyclohexyl)methyl)amino)-3-nitrophenyl)sulfonyl)-4-(6-((R)-2-(2-isopropylphenyl)-4-((6-methoxypyridin-3-yl)methyl)piperazin-1-yl)-2-azaspiro[3.3]heptan-2-yl)benzamide] | 0.11 | 2.5 | 0.14 | 0.29 | 0.057 | 0.057 | 0.062 | 1.1
